Laboratory results taken from patent US11453677B2 (priority 2016, dated 2022).

Tests used:
Assay in all cases: cells
Type in all cases: cell-based
[1] = system: influenza virus minigenome (PB2, PB1, PA, NP) RNP_Hubei in 293T cells; conditions: unidentified influenza virus, HEK-293T, 48 h, read-out: RNP_Hubei EC50
[2] = system: influenza A virus minigenome (PB2, PB1, PA, NP) RNP_CAL in 293T cells; conditions: HEK-293T, 48 h, read-out: RNP_CAL_EC50
[3] = system: influenza A virus minigenome (PB2, PB1, PA, NP) RNP_Alaska in 293T cells; conditions: HEK-293T, 48 h, read-out: RNP_Alaska EC50

Row | SMILES | EC50 [1] | EC50 [2] | EC50 [3]
1 | CSc1cccc([C@H](c2ccc(F)cc2)[C@H]2Cn3ccnc3-c3c(O)c(=O)cnn32)c1 [Example 28, (S)-6-((S)-(4-fluorophenyl)(3-(methylthio)phenyl)methyl)-11-hydroxy-5,6-dihydro-10H-imidazo[2′,1′:3,4]pyrazino[1,2-b]pyridazin-10-one] | 78 nM | 81 nM | 72 nM
2 | O=c1cnn2c(c1O)-c1nccn1C[C@@H]2[C@@H](c1ccc(F)cc1)c1ccccc1Cl [Example 29, (S)-6-((S)-(2-chlorophenyl)(4-fluorophenyl)methyl)-11-hydroxy-5,6-dihydro-10H-imidazo[2′,1′:3,4]pyrazino[1,2-b]pyridazin-10-one] | 58 nM | 72 nM | 70 nM
3 | O=c1cnn2c(c1O)-c1nccn1C[C@@H]2[C@@H](c1ccc(F)cc1)c1cccc(Cl)c1 [Example 31, (S)-6-((S)-(3-chlorophenyl)(4-fluorophenyl)methyl)-11-hydroxy-5,6-dihydro-10H-imidazo[2′,1′:3,4]pyrazino[1,2-b]pyridazin-10-one] | 64 nM | 37 nM | 34 nM
4 | O=c1cnn2c(c1O)-c1nccn1C[C@@H]2[C@@H](c1ccc(F)cc1)c1ccc(C(F)(F)F)cc1 [Example 32, (S)-6-((R)-(4-fluorophenyl)(4-(trifluoromethyl)phenyl)methyl)-11-hydroxy-5,6-dihydro-10H-imidazo[2′,1′:3,4]pyrazino[1,2-b]pyridazin-10-one] | 720 nM | 250 nM | 280 nM
5 | O=c1cnn2c(c1O)-c1nccn1C[C@@H]2[C@@H](c1ccc(F)cc1)c1ccc(Cl)cc1 [Example 33, (S)-6-((S)-(4-chlorophenyl)(4-fluorophenyl)methyl)-11-hydroxy-5,6-dihydro-10H-imidazo[2′,1′:3,4]pyrazino[1,2-b]pyridazin-10-one] | 270 nM | 110 nM | 87 nM
6 | O=c1cnn2c(c1O)-c1nccn1C[C@@H]2[C@@H](c1ccc(F)cc1)c1cc(F)cc(F)c1 [Example 34, (S)-6-((S)-(3,5-difluorophenyl)(4-fluorophenyl)methyl)-11-hydroxy-5H-imidazo[2′,1′:3,4]pyrazino[1,2-b]pyridazin-10(6H)-one] | 34 nM | 25 nM | 33 nM
7 | Cc1ccccc1[C@H](c1ccc(F)cc1Br)[C@H]1Cn2ccnc2-c2c(O)c(=O)cnn21 [Example 35, (S)-6-((R)-(2-bromo-4-fluorophenyl)(o-tolyl)methyl)-11-hydroxy-5,6-dihydro-10H-imidazo[2′,1′:3,4]pyrazino[1,2-b]pyridazin-10-one] | 110 nM | 50 nM | 98 nM
8 | O=c1cnn2c(c1O)-c1nccn1C[C@@H]2[C@H](c1cccc(F)c1)c1ccc(F)cc1Br [Example 36, (S)-6-((R)-(2-bromo-4-fluorophenyl)(3-fluorophenyl)methyl)-11-hydroxy-5,6-dihydro-10H-imidazo[2′,1′:3,4]pyrazino[1,2-b]pyridazin-10-one] | 63 nM | 27 nM | 21 nM
9 | Cc1cccc([C@H](c2ccc(F)cc2)[C@H]2Cn3ccnc3-c3c(O)c(=O)cnn32)c1 [Example 38, (S)-6-((S)-(4-fluorophenyl)(m-tolyl)methyl)-11-hydroxy-5,6-dihydro-10H-imidazo[2′,1′:3,4]pyrazino[1,2-b]pyridazin-10-one] | 97 nM | 49 nM | 43 nM
10 | O=c1cnn2c(c1O)-c1nccn1C[C@@H]2[C@H](c1ccc(F)cc1)c1ccc(F)cc1Br [Example 39, (S)-6-((R)-(2-bromo-4-fluorophenyl)(4-fluorophenyl)methyl)-11-hydroxy-5,6-dihydro-10H-imidazo[2′,1′:3,4]pyrazino[1,2-b]pyridazin-10-one] | 53 nM | 33 nM | 25 nM
11 | Cc1ccccc1[C@H](c1ccc(F)cc1)[C@H]1Cn2ccnc2-c2c(O)c(=O)cnn21 [Example 40, (S)-6-((S)-(4-fluorophenyl)(o-tolyl)methyl)-11-hydroxy-5,6-dihydro-10H-imidazo[2′,1′:3,4]pyrazino[1,2-b]pyridazin-10-one] | 35 nM | 32 nM | 20 nM
12 | CS(=O)(=O)c1cccc([C@H](c2ccc(F)cc2)[C@H]2Cn3ccnc3-c3c(O)c(=O)cnn32)c1 [Example 42, (S)-6-((S)-(4-fluorophenyl)(3-(methylsulfonyl)phenyl)methyl)-11-hydroxy-5,6-dihydro-10H-imidazo[2′,1′:3,4]pyrazino[1,2-b]pyridazin-10-one] | 3800 nM | 2800 nM | 3600 nM
13 | N#Cc1cccc([C@H](c2ccc(F)cc2)[C@H]2Cn3ccnc3-c3c(O)c(=O)cnn32)c1 [Example 43, 3-((S)-(4-fluorophenyl)((S)-11-hydroxy-10-oxo-5,6-dihydro-10H-imidazo[2′,1′:3,4]pyrazino[1,2-b]pyridazin-6-yl)methyl)benzonitrile] | 170 nM | 39 nM | 140 nM
14 | N#Cc1ccccc1[C@H](c1ccc(F)cc1)[C@H]1Cn2ccnc2-c2c(O)c(=O)cnn21 [Example 44, 2-((S)-(4-fluorophenyl)((S)-11-hydroxy-10-oxo-5,6-dihydro-10H-imidazo[2′,1′:3,4]pyrazino[1,2-b]pyridazin-6-yl)methyl)benzonitrile] | 310 nM | 300 nM | 550 nM
15 | N#Cc1ccc([C@H](c2ccc(F)cc2)[C@H]2Cn3ccnc3-c3c(O)c(=O)cnn32)cc1 [Example 45, 4-((R)-(4-fluorophenyl)((S)-11-hydroxy-10-oxo-5,6-dihydro-10H-imidazo[2′,1′:3,4]pyrazino[1,2-b]pyridazin-6-yl)methyl)benzonitrile] | 160 nM | 42 nM | 76 nM
16 | N#Cc1cccc([C@H](c2cccc(F)c2)[C@H]2Cn3ccnc3-c3c(O)c(=O)cnn32)c1 [Example 46, 3-((R)-(3-fluorophenyl)((S)-11-hydroxy-10-oxo-5,6-dihydro-10H-imidazo[2′,1′:3,4]pyrazino[1,2-b]pyridazin-6-yl)methyl)benzonitrile] | 190 nM | 64 nM | 150 nM
17 | O=c1cnn2c(c1O)-c1nc(Br)c(Br)n1C[C@@H]2C(c1ccc(F)cc1)c1ccc(F)cc1 [Example 48, (S)-6-(bis(4-fluorophenyl)methyl)-2,3-dibromo-11-hydroxy-5,6-dihydro-10H-imidazo[2′,1′:3,4]pyrazino[1,2-b]pyridazin-10-one] | 12000 nM | 4300 nM | 5000 nM
18 | N#Cc1cnc2n1C[C@H](C(c1ccc(F)cc1)c1ccc(F)cc1)n1ncc(=O)c(O)c1-2 [Example 49, (S)-6-(bis(4-fluorophenyl)methyl)-11-hydroxy-10-oxo-5,6-dihydro-10H-imidazo[2′,1′:3,4]pyrazino[1,2-b]pyridazine-3-carbonitrile] | 560 nM | 820 nM | 870 nM
19 | O=c1cnn2c(c1O)-c1ncc(CO)n1C[C@@H]2C(c1ccc(F)cc1)c1ccc(F)cc1 [Example 50, (S)-6-(bis(4-fluorophenyl)methyl)-11-hydroxy-3-(hydroxymethyl)-5,6-dihydro-10H-imidazo[2′,1:3,4]pyrazino[1,2-b]pyridazin-10-one] | 700 nM | 100 nM | 430 nM
20 | Cc1ccccc1[C@H](c1ccc(F)cc1)[C@H]1Cn2c(CO)cnc2-c2c(O)c(=O)cnn21 [Example 51, (S)-6-((S)-(4-fluorophenyl)(o-tolyl)methyl)-11-hydroxy-3-(hydroxymethyl)-5,6-dihydro-10H-imidazo[2′,1′:3,4]pyrazino[1,2-b]pyridazin-10-one] | 160 nM | 90 nM | 230 nM
21 | O=c1ccn2c(c1O)-c1ncc(-c3cn[nH]c3)n1C[C@@H]2C(c1ccccc1)c1ccccc1 [Example 52, (S)-6-benzhydryl-11-hydroxy-3-(1H-pyrazol-4-yl)-5,6-dihydro-10H-imidazo[1,2-a]pyrido[2,1-c]pyrazin-10-one] | 970 nM | 8300 nM | 5100 nM
22 | O=c1ccn2c(c1O)-c1ncc(-c3ccccc3)n1C[C@@H]2C(c1ccccc1)c1ccccc1 [Example 53, (S)-6-benzhydryl-11-hydroxy-3-phenyl-5H-imidazo [1,2-a] pyrido[2,1-c]pyrazin-10(6H)-one] | 190 nM | 3000 nM | 540 nM
23 | CC(O)c1cnc2n1C[C@H](C(c1ccccc1)c1ccccc1)n1ccc(=O)c(O)c1-2 (stereo partly drawn) [Example 55, (6S)-6-benzhydryl-11-hydroxy-3-(1-hydroxyethyl)-5H-imidazo [1,2-a]pyrido[2,1-c]pyrazin-10(6H)-one] | 6600 nM | 1700 nM | 2600 nM
24 | COCc1cnc2n1C[C@H](C(c1ccccc1)c1ccccc1)n1ccc(=O)c(O)c1-2 [Example 56, (S)-6-benzhydryl-11-hydroxy-3-(methoxymethyl)-5H-imidazo [1,2-a]pyrido[2,1-c]pyrazin-10(6H)-one] | 270 nM | 92 nM | 280 nM
25 | O=c1ccn2c(c1O)-c1ncc(C(F)F)n1C[C@@H]2C(c1ccccc1)c1ccccc1 [Example 57, (S)-6-benzhydryl-3-(difluoromethyl)-11-hydroxy-5H-imidazo[1,2-a]pyrido[2,1-c]pyrazin-10(6H)-one] | 580 nM | 180 nM | 220 nM
26 | O=c1ccn2c(c1O)-c1ncc(CN3CCSCC3)n1C[C@@H]2C(c1ccccc1)c1ccccc1 [Example 62, (S)-6-benzhydryl-11-hydroxy-3-(thiomorpholinomethyl)-5,6-dihydro-10H-imidazo[1,2-a]pyrido[2,1-c]pyrazin-10-one] | 1500 nM | 640 nM | 1900 nM
